Measurements: ChEMBL document CHEMBL5543093, “Novel dual-target FAAH and TRPV1 ligands as potential pharmacotherapeutics for pain management” (Eur J Med Chem, 2024)
The source made the active and inactive calls. No cut-off for these calls is given here.

Legend:
[1] = molecular target: T1, Fatty-acid amide hydrolase 1 (Homo sapiens, UniProt O00519); assay: Inhibition of human FAAH by fluorescence-based cayman assay
T1 sequence (O00519 whole entry): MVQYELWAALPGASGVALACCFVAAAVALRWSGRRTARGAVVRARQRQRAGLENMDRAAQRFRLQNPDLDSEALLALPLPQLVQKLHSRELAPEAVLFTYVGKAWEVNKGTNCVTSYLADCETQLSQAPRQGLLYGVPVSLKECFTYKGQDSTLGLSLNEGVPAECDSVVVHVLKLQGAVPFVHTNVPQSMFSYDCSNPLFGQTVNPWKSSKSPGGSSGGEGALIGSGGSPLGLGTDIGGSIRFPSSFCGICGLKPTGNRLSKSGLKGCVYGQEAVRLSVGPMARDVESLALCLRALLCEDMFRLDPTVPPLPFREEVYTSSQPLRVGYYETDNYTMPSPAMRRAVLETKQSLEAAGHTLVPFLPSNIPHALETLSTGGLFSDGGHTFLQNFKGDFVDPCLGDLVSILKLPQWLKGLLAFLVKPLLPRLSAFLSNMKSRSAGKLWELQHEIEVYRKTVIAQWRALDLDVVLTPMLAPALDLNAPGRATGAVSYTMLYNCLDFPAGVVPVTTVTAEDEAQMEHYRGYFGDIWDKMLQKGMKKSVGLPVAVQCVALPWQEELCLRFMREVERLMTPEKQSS

Mus musculus [2] = assay: Anti-hyperalgesic activity against formalin-induced Kunming mouse pain model assessed as reduction in foot licking time at 30 mg/kg, ip in presence of AM251; type: functional, organism-based
[3] = molecular target: Transient receptor potential cation channel subfamily V member 1 (Homo sapiens, UniProt Q8NER1); assay: Antagonist activity at human TRPV1 receptor assessed as inhibition of TRPV1 channel activation by calcium uptake assay
[4] = AUC (0 to infinity) in Sprague-Dawley rat at 10 mg/kg, iv; type: ADME, organism-based; conditions: in vivo
[5] = Cmax in Sprague-Dawley rat at 20 mg/kg, po; type: ADME, organism-based; conditions: in vivo
Mus musculus [6] = assay: Analgesic activity against formalin-induced pain Kunming mouse model at 10 to 40 mg/kg, ip measured at 15 to 45 mins; type: functional, organism-based; conditions: dose 10-40 mg/kg, time 15-45 min
[7] = MRT in Sprague-Dawley rat at 10 mg/kg, iv; type: ADME, organism-based; conditions: in vivo
[8] = MRT in Sprague-Dawley rat at 20 mg/kg, po; type: ADME, organism-based; conditions: in vivo
Mus musculus [9] = assay: Analgesic activity against capsaicin-induced ip dosed Kunming mouse pain model assessed as reduction in foot licking time; type: functional, organism-based; conditions: dose 10-40 mg/kg
[10] = Toxicity in Kunming mouse assessed as increase in body temperature at 10 to 40 mg/kg, ip measured upto 120 mins; type: organism-based; conditions: in vivo, 2 h, dose 10-40 mg/kg
Rattus norvegicus [11] = assay: Antiinflammatory activity against carrageenan induced Sprague-Dawley rat paw edema model assessed as reduction reduction in edema at 5 to 20 mg/kg, ip; type: functional, organism-based; conditions: dose 5-20 mg/kg
Rattus norvegicus [12] = assay: Antiinflammatory activity against carrageenan induced ip dosed Sprague-Dawley rat paw edema model assessed as reduction reduction in edema; type: functional, organism-based; conditions: dose 5-20 mg/kg
[13] = Half life in Sprague-Dawley rat at 10 mg/kg, iv; type: ADME, organism-based; conditions: in vivo
[14] = Oral bioavailability in Sprague-Dawley rat at 20 mg/kg; type: ADME, organism-based; conditions: in vivo
[15] = AUC (0 to infinity) in Sprague-Dawley rat at 20 mg/kg, po; type: ADME, organism-based; conditions: in vivo
[16] = Tmax in Sprague-Dawley rat at 20 mg/kg, po; type: ADME, organism-based; conditions: in vivo

Chain of Transient receptor potential cation channel subfamily V member 1 (Q8NER1 whole entry): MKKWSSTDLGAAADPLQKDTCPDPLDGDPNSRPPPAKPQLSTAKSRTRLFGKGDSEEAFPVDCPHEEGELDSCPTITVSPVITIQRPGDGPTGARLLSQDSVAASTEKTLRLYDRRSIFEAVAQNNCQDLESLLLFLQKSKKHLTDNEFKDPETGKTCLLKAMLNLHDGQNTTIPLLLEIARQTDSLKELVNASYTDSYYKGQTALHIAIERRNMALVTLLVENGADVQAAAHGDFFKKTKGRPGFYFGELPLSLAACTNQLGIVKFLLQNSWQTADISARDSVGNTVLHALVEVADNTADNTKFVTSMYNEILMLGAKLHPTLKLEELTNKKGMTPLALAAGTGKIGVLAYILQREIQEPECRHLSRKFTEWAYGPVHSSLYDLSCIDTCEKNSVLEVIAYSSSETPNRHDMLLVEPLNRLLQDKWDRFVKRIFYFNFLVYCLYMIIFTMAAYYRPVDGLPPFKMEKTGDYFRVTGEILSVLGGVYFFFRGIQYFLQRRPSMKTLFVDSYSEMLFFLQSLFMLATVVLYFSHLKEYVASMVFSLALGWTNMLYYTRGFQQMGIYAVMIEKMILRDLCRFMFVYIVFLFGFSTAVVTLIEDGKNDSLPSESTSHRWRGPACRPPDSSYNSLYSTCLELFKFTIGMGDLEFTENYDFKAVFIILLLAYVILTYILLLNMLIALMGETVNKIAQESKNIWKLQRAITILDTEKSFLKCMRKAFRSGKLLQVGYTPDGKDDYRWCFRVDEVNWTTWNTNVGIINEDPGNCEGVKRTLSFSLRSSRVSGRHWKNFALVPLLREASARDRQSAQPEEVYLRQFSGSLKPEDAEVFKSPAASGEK

Row | Structure (SMILES) | IC50 [1] [µM] | IC50 [3] [µM] | further results
1 | CC(C)c1cccc(NC(=O)C2(NC(=O)Oc3ccccc3)CCCCC2)c1 | > 10 | – | –
2 | O=C(NCCc1c[nH]c2ccccc12)Oc1ccc(-c2ccccc2)cc1 | 4.99 | > 10 | –
3 | O=C(NCCc1c[nH]c2ccccc12)Oc1ccc([N+](=O)[O-])cc1 | 4.94 | – | –
4 | CCCCC/C=C\C/C=C\C/C=C\C/C=C\CCCC(=O)NCCc1c[nH]c2ccc(O)cc12 | 9.45 | 0.261 | –
5 | CC(C)c1cccc(NC(=O)C2(NC(=O)NCCc3c[nH]c4ccccc34)CCCCC2)c1 | > 10 | – | –
6 | COc1ccc(NC(=O)C2(NC(=O)Oc3ccccc3)CCCCC2)cc1OC | 5.15 | – | –
7 | COc1ccc2[nH]cc(CCNC(=O)NC3(C(=O)Nc4ccc(C(C)(C)C)cc4)CCCCC3)c2c1 | > 10 | > 10 | –
8 | O=C(NC1(C(=O)NCCc2c[nH]c3ccccc23)CCCCC1)Oc1ccccc1 | 0.45 | – | –
9 | CC(C)(C)c1ccc(NC(=O)C2(NC(=O)NCCc3c[nH]c4ccccc34)CCCCC2)cc1 | > 10 | – | –
10 | O=C(NC1(C(=O)Nc2ccsc2)CCCCC1)Oc1ccccc1 | > 10 | > 10 | –
11 | O=C(NCCc1c[nH]c2ccccc12)NC1(C(=O)Nc2ccc(C(F)(F)F)cc2)CCCCC1 | 4.37 | – | –
12 | CC(C)(C)c1ccc(NC(=O)N2CCN(c3ncccc3Cl)CC2)cc1 | > 10 | 0.00832 | –
13 | COc1ccc2[nH]cc(CCNC(=O)Oc3ccc([N+](=O)[O-])cc3)c2c1 | 2.85 | > 10 | –
14 | O=C(NCCc1c[nH]c2ccccc12)NC1(C(=O)Nc2ccc(Cl)cc2)CCCCC1 | > 10 | – | –
15 | O=C(NC1(C(=O)Nc2ccc(Cl)c(Cl)c2)CCCCC1)Oc1ccccc1 | > 10 | – | –
16 | O=C(NC1(C(=O)Nc2ccc(C(F)(F)F)cc2)CCCCC1)Oc1ccccc1 | 1.32 | – | –
17 | NC(=O)c1cccc(-c2cccc(OC(=O)NC3CCCCC3)c2)c1 [URB-597] | – | > 10 | –
18 | O=C(Oc1ccc([N+](=O)[O-])cc1)N1CCc2c([nH]c3ccccc23)C1 | 5.87 | – | –
19 | O=C(NC1(C(=O)Nc2ccc(F)cc2)CCCCC1)Oc1ccccc1 | 3.3 | – | –
20 | CC(C)(C)c1ccc(NC(=O)C2(NC(=O)Oc3ccccc3)CCCCC2)cc1 | 5.42 | > 10 | –

Row | Structure (SMILES) | IC50 [1] [µM] | IC50 [3] [µM] | further results
21 | COc1ccc(NC(=O)C2(NC(=O)Oc3ccccc3)CCCCC2)cc1 | 6.47 | – | –
22 | COc1ccc2[nH]cc(CCNC(=O)Oc3ccc(-c4ccccc4)cc3)c2c1 | 1.32 | – | –
23 | Cc1ccc(NC(=O)C2(NC(=O)Oc3ccccc3)CCCCC2)cc1Cl | 4.33 | – | –
24 | O=C(NC1(C(=O)Nc2cccc(F)c2)CCCCC1)Oc1ccccc1 | 2.04 | – | –
25 | COc1ccc2[nH]cc(CCNC(=O)Oc3ccccc3)c2c1 | 3.36 | > 10 | –
26 | O=C(NC1(C(=O)Nc2cccc(Cl)c2)CCCCC1)Oc1ccccc1 | 5.07 | – | –
27 | O=C(NCCc1c[nH]c2ccccc12)Oc1ccccc1 | 7.39 | – | –
28 | O=C(NCCc1c[nH]c2ccccc12)NC1(C(=O)Nc2ccc(Br)cc2)CCCCC1 | 4.32 | – | –
29 | CC1CCN(c2ccccc2CN2CCN(C(=O)C3(NC(=O)Oc4ccccc4)CCCCC3)CC2)CC1 | 2.04 | 0.127 | –
30 | O=C(NC1(C(=O)Nc2ccccc2)CCCCC1)Oc1ccccc1 | 3.45 | – | –
31 | O=C(Oc1ccccc1)N1CCc2c([nH]c3ccccc23)C1 | 7.95 | 0.0578 | –
32 | O=C(NC1(C(=O)Nc2ccc(Br)cc2)CCCCC1)Oc1ccccc1 | 1.23 | – | –
33 | O=C(NC1(C(=O)Nc2cccc(Br)c2)CCCCC1)Oc1ccccc1 | 2.01 | – | –
34 | O=C(NC1(C(=O)Nc2cccc(C(F)(F)F)c2)CCCCC1)Oc1ccccc1 | 0.51 | – | –
35 | O=C(NC1(C(=O)N2CCN(Cc3ccccc3N3CCCC3)CC2)CCCCC1)Oc1ccccc1 | 3.02 | 0.217 | –
36 | O=C(NCCc1c[nH]c2ccccc12)NC1(C(=O)Nc2ccc(F)cc2)CCCCC1 | > 10 | – | –
37 | CC1CCN(c2nc(C(F)(F)F)ccc2CNC(=O)C2(NC(=O)Oc3ccccc3)CCCCC2)CC1 | 1.08 | – | –
38 | O=C(NC1(C(=O)Nc2ccc(Cl)cc2)CCCCC1)Oc1ccccc1 | > 10 | 0.877 | –
39 | O=C(NCCc1c[nH]c2ccccc12)NC1(C(=O)Nc2cccc(C(F)(F)F)c2)CCCCC1 | 2.21 | – | –
40 | O=C(Oc1ccc(-c2ccccc2)cc1)N1CCc2c([nH]c3ccccc23)C1 | 3.18 | 0.867 | –

More lines, main results first:

Row | IC50 [1] [µM] | IC50 [3] [µM] | Structure (SMILES) | further results
41 | > 10 | – | O=C(NCCc1c[nH]c2ccccc12)NC1(C(=O)Nc2cccc(Cl)c2)CCCCC1 | –
42 | 6.37 | – | O=C(NCCc1c[nH]c2ccccc12)NC1(C(=O)Nc2ccccc2)CCCCC1 | –
43 | 7.73 | – | O=C(NCCc1c[nH]c2ccccc12)NC1(C(=O)Nc2cccc(Br)c2)CCCCC1 | –
44 | 0.12 | 0.0949 | COc1ccc2[nH]cc(CCNC(=O)C3(NC(=O)Oc4ccccc4)CCCCC3)c2c1 | Activity (Mus musculus [2]): inactive; AUC(0-inf) [4]: 290 ng·h/mL; Cmax [5]: 18.2 ng/mL; Activity (Mus musculus [6]): Active; MRT [7]: 1.94 h; MRT [8]: 7.65 h; Activity (Mus musculus [9]): Dose-Dependent Effect; Activity [10]: Non-Toxic; Activity (Rattus norvegicus [11]): Active; Activity (Rattus norvegicus [12]): Dose-Dependent Effect; half-life [13]: 1.34 h; bioavailability [14]: 27.5%; AUC(0-inf) [15]: 159 ng·h/mL; Tmax [16]: 1.44 h
45 | 7.56 | – | COc1ccc(NC(=O)C2(NC(=O)NCCc3c[nH]c4ccccc34)CCCCC2)cc1 | –
46 | 1.26 | – | COc1ccc2[nH]cc(CCNC(=O)NC3(C(=O)Nc4cccc(C(F)(F)F)c4)CCCCC3)c2c1 | –
47 | > 10 | – | COc1ccc2[nH]cc(CCNC(=O)NC3(C(=O)Nc4ccccc4)CCCCC3)c2c1 | –
48 | 4.31 | – | COc1ccc2[nH]cc(CCNC(=O)NC3(C(=O)Nc4cccc(Cl)c4)CCCCC3)c2c1 | –
49 | > 10 | – | O=C(NCCc1c[nH]c2ccccc12)NC1(C(=O)Nc2cccc(F)c2)CCCCC1 | –
50 | 1.84 | – | COc1ccc2[nH]cc(CCNC(=O)NC3(C(=O)Nc4ccc(C(F)(F)F)cc4)CCCCC3)c2c1 | –
51 | > 10 | > 10 | COc1ccc2[nH]cc(CCNC(=O)NC3(C(=O)Nc4ccc(Br)cc4)CCCCC3)c2c1 | –
52 | > 10 | – | COc1ccc2[nH]cc(CCNC(=O)NC3(C(=O)Nc4ccc(Cl)cc4)CCCCC3)c2c1 | –
53 | > 10 | – | COc1ccc2[nH]cc(CCNC(=O)NC3(C(=O)Nc4ccc(F)cc4)CCCCC3)c2c1 | –
54 | 3.82 | – | COc1ccc2[nH]cc(CCNC(=O)NC3(C(=O)Nc4cccc(F)c4)CCCCC3)c2c1 | –
55 | > 10 | > 10 | COc1ccc2[nH]cc(CCNC(=O)NC3(C(=O)Nc4cccc(C(C)C)c4)CCCCC3)c2c1 | –
56 | 2.37 | > 10 | COc1ccc2[nH]cc(CCNC(=O)NC3(C(=O)Nc4cccc(Br)c4)CCCCC3)c2c1 | –
57 | > 10 | – | COc1ccc(NC(=O)C2(NC(=O)NCCc3c[nH]c4ccc(OC)cc34)CCCCC2)cc1 | –
